Broadly, the IC50 is the midpoint of a concentration-inhibition curve.

In ChEMBL document CHEMBL1777737, “Solid phase synthesis of tariquidar-related modulators of ABC transporters preferring breast cancer resistance protein (ABCG2)” (Bioorg Med Chem Lett, 2011) one finds IC50 and Emax data, which are given here for twelve molecules.

Holding throughout (type): cell-based
The target in series [1] is T1, Broad substrate specificity ATP-binding cassette transporter ABCG2 (Homo sapiens, UniProt Q9UNQ0).
T1 sequence (Q9UNQ0 whole entry): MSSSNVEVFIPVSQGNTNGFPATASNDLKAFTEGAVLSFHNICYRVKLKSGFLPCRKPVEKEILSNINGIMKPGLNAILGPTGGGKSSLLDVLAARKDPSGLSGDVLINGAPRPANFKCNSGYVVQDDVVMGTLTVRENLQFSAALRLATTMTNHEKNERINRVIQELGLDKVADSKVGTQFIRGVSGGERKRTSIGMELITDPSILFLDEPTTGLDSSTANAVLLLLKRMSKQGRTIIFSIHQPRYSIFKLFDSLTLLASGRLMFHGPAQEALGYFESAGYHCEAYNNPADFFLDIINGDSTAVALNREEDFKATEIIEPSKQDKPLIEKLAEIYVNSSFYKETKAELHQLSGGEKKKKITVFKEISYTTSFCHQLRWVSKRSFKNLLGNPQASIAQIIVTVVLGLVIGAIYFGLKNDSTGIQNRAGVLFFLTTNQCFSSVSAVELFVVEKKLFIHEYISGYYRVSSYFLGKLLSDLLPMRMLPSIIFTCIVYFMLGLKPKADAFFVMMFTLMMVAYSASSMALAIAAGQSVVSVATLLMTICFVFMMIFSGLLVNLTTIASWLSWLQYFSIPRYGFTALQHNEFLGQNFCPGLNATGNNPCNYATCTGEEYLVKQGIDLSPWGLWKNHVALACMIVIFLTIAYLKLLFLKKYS
Briefly: Inhibition of ABCG2 expressed in human MCF7/Topo cells by Hoechst microplate assay.

Another series addresses T2, ABCG2 (Homo sapiens, UniProt Q9UNQ0).
T2 sequence (Q9UNQ0 whole entry): T1 sequence (Q9UNQ0 whole entry)
Kind of series: Inhibition of ABCG2 expressed in human MCF7/Topo cells assessed as maximal inhibitory effect at IC50 concentration by Hoechst microplate assay. The settings on record: MCF7/Topo cells expressing ABCG2, probe Hoechst dye, read-out: INH.

The target of series [2] is ATP-dependent translocase ABCB1 (Homo sapiens, UniProt P08183). Briefly: Inhibition of ABCB1 expressed in Kb-V1 cells after 10 mins by calcein-AM assay.
ATP-dependent translocase ABCB1, sequence (P08183 whole entry): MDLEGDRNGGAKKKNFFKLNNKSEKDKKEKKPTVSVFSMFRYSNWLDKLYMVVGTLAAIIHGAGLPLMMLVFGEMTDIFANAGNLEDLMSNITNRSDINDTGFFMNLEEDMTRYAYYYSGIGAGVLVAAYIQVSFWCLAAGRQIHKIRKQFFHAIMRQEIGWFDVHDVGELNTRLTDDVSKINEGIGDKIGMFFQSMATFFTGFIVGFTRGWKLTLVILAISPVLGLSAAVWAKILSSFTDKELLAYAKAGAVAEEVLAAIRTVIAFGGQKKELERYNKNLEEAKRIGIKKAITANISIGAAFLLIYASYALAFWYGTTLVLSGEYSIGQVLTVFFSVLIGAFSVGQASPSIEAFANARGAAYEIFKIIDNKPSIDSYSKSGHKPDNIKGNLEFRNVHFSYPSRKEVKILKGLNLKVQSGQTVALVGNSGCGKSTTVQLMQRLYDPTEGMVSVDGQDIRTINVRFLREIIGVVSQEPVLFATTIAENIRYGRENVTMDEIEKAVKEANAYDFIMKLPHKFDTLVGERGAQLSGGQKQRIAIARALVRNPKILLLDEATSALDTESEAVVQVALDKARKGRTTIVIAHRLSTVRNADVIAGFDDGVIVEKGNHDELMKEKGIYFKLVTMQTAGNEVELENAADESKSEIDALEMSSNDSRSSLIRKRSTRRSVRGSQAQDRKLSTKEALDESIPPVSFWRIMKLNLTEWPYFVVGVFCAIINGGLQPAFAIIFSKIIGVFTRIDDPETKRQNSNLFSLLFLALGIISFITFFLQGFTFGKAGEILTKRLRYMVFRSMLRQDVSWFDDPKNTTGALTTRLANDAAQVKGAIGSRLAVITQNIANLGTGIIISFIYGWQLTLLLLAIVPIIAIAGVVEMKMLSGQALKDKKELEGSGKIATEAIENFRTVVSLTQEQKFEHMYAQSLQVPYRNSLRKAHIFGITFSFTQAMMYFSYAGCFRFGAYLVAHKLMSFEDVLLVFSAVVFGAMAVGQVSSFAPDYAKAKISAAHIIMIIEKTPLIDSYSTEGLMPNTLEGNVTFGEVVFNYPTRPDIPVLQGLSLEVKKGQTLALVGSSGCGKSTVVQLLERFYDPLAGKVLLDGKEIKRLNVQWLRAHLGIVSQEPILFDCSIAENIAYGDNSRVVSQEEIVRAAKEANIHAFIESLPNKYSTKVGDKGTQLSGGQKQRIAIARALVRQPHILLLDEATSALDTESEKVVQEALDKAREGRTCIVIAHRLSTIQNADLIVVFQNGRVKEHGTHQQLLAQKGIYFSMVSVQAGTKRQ

For the molecule `COCCOCCOCCOc1cc2c(cc1OC)CCN(CCc1ccc(NC(=O)c3ccc(C(=O)OC)c(NC(=O)c4ccc5ncccc5c4)c3)cc1)C2`, the IC50 was 0.508 µM in series [1] and greater than 50 µM in series [2]. In addition, the Emax at ABCG2 was determined as 61%.
With `COc1cc2c(cc1OC)CN(CCc1ccc(NC(=O)c3ccc(C(=O)O)c(NC(=O)c4ccc5ccccc5n4)c3)cc1)CC2`, the IC50 in series [1] was greater than 5 µM; in series [2] it was greater than 50 µM.
For the molecule `COc1cc2c(cc1OC)CN(CCc1ccc(NC(=O)c3ccc(C(=O)O)c(NC(=O)c4ccc5ncccc5c4)c3)cc1)CC2`, the half-maximal inhibitory concentration (IC50) is greater than 100 µM in series [1] and greater than 1 µM in series [2].
For the molecule `COCCOCCOCCOc1cc2c(cc1OC)CN(CCc1ccc(NC(=O)c3ccc(C(=O)O)c(NC(=O)c4ccc5ccccc5n4)c3)cc1)CC2`, the IC50 in series [1] is greater than 50 µM; in series [2], greater than 100 µM.
`COCCOCCOCCOc1cc2c(cc1OC)CN(CCc1ccc(NC(=O)c3ccc(C(=O)O)c(NC(=O)c4ccc5ncccc5c4)c3)cc1)CC2`: the IC50 in series [1] and in series [2] was greater than 50 µM in each case.
For `COCCOCCOCCOc1cc2c(cc1OC)CCN(CCc1ccc(NC(=O)c3ccc(C(=O)O)c(NC(=O)c4ccc5ccccc5n4)c3)cc1)C2`, the IC50 in series [1] is 6.2 µM; in series [2], greater than 100 µM.
Turning to `COCCOCCOCCOc1cc2c(cc1OC)CCN(CCc1ccc(NC(=O)c3ccc(C(=O)O)c(NC(=O)c4ccc5ncccc5c4)c3)cc1)C2`, the 50% inhibitory concentration (IC50) in series [1] and in series [2] was greater than 50 µM in each case.
With `COCCOCCOCCOc1cc2c(cc1OC)CN(CCc1ccc(NC(=O)c3ccc(C(=O)OC)c(NC(=O)c4ccc5ccccc5n4)c3)cc1)CC2`, the values for the IC50 in series [1] and in series [2] were 0.183 µM and greater than 50 µM, respectively.
In the case of `COCCOCCOCCOc1cc2c(cc1OC)CN(CCc1ccc(NC(=O)c3ccc(C(=O)OC)c(NC(=O)c4ccc5ncccc5c4)c3)cc1)CC2`, the half-maximal inhibitory concentration (IC50) is 0.39 µM in series [1] and greater than 100 µM in series [2]. Moreover, the Emax at ABCG2 came to 41%.
For the molecule `COCCOCCOCCOc1cc2c(cc1OC)CCN(CCc1ccc(NC(=O)c3ccc(C(=O)OC)c(NC(=O)c4ccc5ccccc5n4)c3)cc1)C2`, the IC50 in series [1] was 0.13 µM; in series [2] it was greater than 50 µM.
For `COC(=O)c1ccc(C(=O)Nc2ccc(CCN3CCc4cc(OC)c(OC)cc4C3)cc2)cc1NC(=O)c1ccc2ncccc2c1`, the IC50 is 0.172 µM in series [1] and greater than 10 µM in series [2]. Also, on ABCG2, the Emax came out at 55%.
Turning to `COC(=O)c1ccc(C(=O)Nc2ccc(CCN3CCc4cc(OC)c(OC)cc4C3)cc2)cc1NC(=O)c1ccc2ccccc2n1`, the IC50 in series [1] is 0.059 µM; in series [2] it was greater than 29 µM.
